In patent US20180355441A1, “VISUAL DETECTION OF PLATINATED DNA LESIONS FROM A CLICKABLE CISPLATIN PROBE USED AS DIAGNOSTIC TOOL OR TO IDENTIFY SYNERGISTIC TREATMENTS” (CENTRE NATIONAL DE LA RECHERCHE SCIENTIFIQUE, priority 2015, published 2018):

How the values were obtained:
U2OS cells = test: Cell viability assay (CellTiter-Blue), anti-proliferative activity; type: cell-based, human; conditions: 72 h treatment
Protocol: Cell viability assays were carried out by plating U2OS cells (2,000 cells per well) in 96-well plates.

[1] = test system: genomic DNA from U2OS cells; conditions: compared to equal amounts of DNA collected from CP-treated cells; 3 h treatment
Excerpt: Samples were air dried and visualized using a Bio-Rad Molecular Imager ChemiDoc XRS+ system.

[2] = test system: 26-mer hairpin-forming DNA oligonucleotide containing a single 1,2-GG dinucleotide; conditions: 37° C., 18 h
Protocol: The reaction of hp with ACP was performed at 37° C. for 18 h. Unbound ACP and salts were removed using a Sephadex G-25 Medium size exclusion resin (GE Healthcare) on laboratory prepared spin columns (BioRad).

DNA-Pt in U2OS cells = test: Screen of small molecule modulators of genome targeting using ACP staining as readout; type: cell-based, human; conditions: U2OS cells co-treated with small molecule and ACP, confocal microscopy
Protocol: Labeled DNA-Pt were analyzed by confocal microscopy.
[…], ACP, APPOA and CP were prepared in the laboratory as described in the synthesis section of the methods. Suberoylanilide hydroxamic acid (SAHA) was purchased from Sigma and cisplatin was purchased from Tocris.
Data were analyzed with ImagaJ.

histone H4 = test: Western blot of histone H4 acetylation; type: cell-based, human; conditions: U2OS cells
Protocol: Cells were washed once with PBS and lysed in lysis buffer (50 mM Tris-HCl, pH 7.5, 150 mM NaCl, 1 mM EDTA, 1% Triton X-100). For Western blot, samples were briefly sonicated followed by boiling in SDS sample buffer and separated by SDS-PAGE gels. Proteins were transferred to nitrocellulose membrane (GE Healthcare) and western blotting was performed following standard protocols. Western blots were detected by chemiluminescence (GE Healthcare Amersham ECL prime) using a Bio-Rad Molecular Imager ChemiDoc XRS+ system. The primary antibodies used for western blotting: H2AX (Millipore; #07-627), γH2AX [pSer139] (Novus Biologicals; NB100-384), histone H4 (Abcam; ab7311), acetyl-histone H4 (Lys16) (Cell Signaling; #8804), acetyl-histone H4 (Millipore; #06-866), PCNA (Santa Cruz Biotech; PC10), RAD18 (Cell Signaling; #21000), PARP (Cell Signaling; #9542), β-tubulin (Abcam; ab6046). Secondary antibodies used were: anti-rabbit IgG, HRP-linked (Cell Signaling; #7074), anti-mouse IgG, HRP-linked (Cell Signaling; #7076).

Row | Compound | Anti-proliferative activity against U2OS cells (U2OS cells) | Fluorescence of labeled genomic DNA (dot blot) [1] | Reactivity towards DNA and labeling by alkyne-containing tag in vitro [2] | Effect on ACP staining (DNA-Pt) by visual inspection (DNA-Pt in U2OS cells) | Histone H4 acetylation (histone H4)
1 | 2-aminomethylpyridine(dichloro)platinum(II) azide [ACP] | exhibited anti-proliferative properties | higher level of fluorescence | can chemoselectively cross react with DNA and be labeled by an alkyne-containing tag | – | –
2 | Nc1ncn([C@@H]2O[C@H](CO)[C@@H](O)[C@H]2O)c(=O)n1 [Compound 5-Aza, 5-Azacytidine] | – | – | – | led to the occurrence of foci of DNA-Pt | –
3 | O=C(CCCCCCC(=O)Nc1ccccc1)NO [SAHA, Suberoylanilide hydroxamic acid] | – | – | – | led to the occurrence of foci of DNA-Pt | induced histone hyperacetylation of histone H4
4 | N.N.[Cl][Pt][Cl] [cisplatin] | exhibited anti-proliferative properties | – | – | – | –
